Reference: patent US20080207617A1, “Quinoline Derivatives and Quinazoline Derivatives Inhibiting Autophosphrylation of Flt3 and Medicinal Compositions Containing the Same” (KIRIN BEER KABUSHIKI KAISHA, priority 2002, published 2008)
Counter-ions that a name gives are not always drawn.

Assays:
MV4-11 = assay: Cell growth inhibitory test MV4-11 (WST-1); type: cell-based, human; conditions: MV4-11 cells, 3 days culture
In short: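 MV4-11 leukemia cells (3×10^3/well, DMEM + 10% FCS) were cultured 3 days with compound in DMSO at 5% CO2. Growth read by WST-1 absorbance at 450 nm (ref 650 nm), normalized to untreated (100%) and cell-free (0%) wells; IC50 from multiple concentrations.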

FLT3 = target: T1, FLT3 (Homo sapiens, UniProt P36888); assay: Inhibitory activity against FLT3 autophosphorylation using ELISA method; type: cell-based; conditions: MV4-11 cells, 1 hr with compound, read-out: IC50 of FLT3-phosphorylation
T1 sequence (P36888 with tags, fused parts or gaps INS600HVDFREYEYD): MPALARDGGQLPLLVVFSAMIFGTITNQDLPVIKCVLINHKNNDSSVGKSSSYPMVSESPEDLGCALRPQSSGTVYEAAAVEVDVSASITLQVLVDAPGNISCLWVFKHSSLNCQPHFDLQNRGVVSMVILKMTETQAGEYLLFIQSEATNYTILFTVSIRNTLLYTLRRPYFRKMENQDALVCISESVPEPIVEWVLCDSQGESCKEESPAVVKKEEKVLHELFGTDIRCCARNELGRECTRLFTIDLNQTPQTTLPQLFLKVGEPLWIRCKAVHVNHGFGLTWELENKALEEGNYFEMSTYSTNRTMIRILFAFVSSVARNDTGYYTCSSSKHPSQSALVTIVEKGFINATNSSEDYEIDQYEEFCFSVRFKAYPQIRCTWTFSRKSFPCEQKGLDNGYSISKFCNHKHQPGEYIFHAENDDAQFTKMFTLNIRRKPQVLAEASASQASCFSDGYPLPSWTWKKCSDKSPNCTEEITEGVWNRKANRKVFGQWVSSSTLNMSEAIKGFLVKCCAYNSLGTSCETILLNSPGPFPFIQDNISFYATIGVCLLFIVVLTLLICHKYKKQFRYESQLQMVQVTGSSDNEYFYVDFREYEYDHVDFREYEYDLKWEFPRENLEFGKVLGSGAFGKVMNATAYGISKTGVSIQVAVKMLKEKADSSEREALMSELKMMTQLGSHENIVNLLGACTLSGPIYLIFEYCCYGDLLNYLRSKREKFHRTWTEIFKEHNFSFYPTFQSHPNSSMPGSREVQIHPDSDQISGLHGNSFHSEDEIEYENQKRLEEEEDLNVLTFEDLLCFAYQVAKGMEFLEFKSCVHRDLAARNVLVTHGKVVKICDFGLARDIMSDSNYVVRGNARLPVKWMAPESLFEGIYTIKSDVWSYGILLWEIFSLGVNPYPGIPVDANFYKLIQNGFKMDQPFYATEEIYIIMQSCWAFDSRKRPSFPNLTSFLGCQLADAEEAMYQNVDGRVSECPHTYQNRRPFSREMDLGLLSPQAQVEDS
Method: Pharmacological Test Example 1
Measurement of Inhibitory Activity Against FLT3 Autophosphorylation Using ELISA Method
Human leukemia cells MV4-11 (ATCC number: CRL-9591) were cultured in an IMDM medium containing 10% fetal calf serum (purchased from SIGMA) within a 5% carbon dioxide incubator until 50 to 90% confluent. The harvested cells were seeded into 96-wells, plates, containing an IMDM medium containing 0.1% fetal calf serum, in a 96-well multiscreen plate in an amount of 5.0×10^5 per well, a solution of the test compound in dimethyl sulfoxide was added to each well, and the cultivation was continued at 37° C. for one hr. The medium was removed, followed by washing with phosphate buffered saline. A lysis buffer (60 μl) (20 mM HEPES (pH 7.4), 150 mM NaCl, 0.2% Triton X-100, 10% glycerol, 5 mM sodium orthovanadylate, 5 mM disodium ethylenediaminetetraacetate, and 2 mM Na4P2O7) was then added thereto. The mixture was shaken at 4° C. for 2 hr to prepare a cell extracts.
Separately, phosphate buffered saline (50 μl, pH 7.4) containing 5 μg/ml of anti-phospho-tyrosine antibody (PY20; purchased from Transduction Laboratories) was added to a 96-well microplate for ELISA (Maxisorp; purchased from NUNC), followed by standing at 4° C. overnight to form a solid phase on the wells. After washing of the plate, 250 μl of a blocking solution was added, followed by standing at room temperature for 3 hr to perform blocking. After washing, the whole quantity of the cell extract was transferred to the wells, and the plate was then allowed to stand at 4° C. overnight. After washing, an anti-FLT3 antibody (Flt3/Flk2 (C-20), purchased from Santa Cruz Biotechnology) was allowed to react at room temperature for 2 hr, and, after washing, a peroxidase-labeled anti-rabbit Ig antibody (purchased from Amersham) was allowed to react at room temperature for one hr. After washing, a chromophoric substrate for peroxidase (purchased from Sumitomo Bakelite Co., Ltd.) was added thereto to initiate a reaction. After a suitable level of color development, a reaction termination solution was added to stop the reaction, and the absorbance at 450 nm was measured with a microplate reader. The FLT3-phosphorylation activity for each well was determined by presuming the absorbance without the addition of the medicament to be 100% FLT3-phosphorylation activity and the absorbance with the addition of a large excess of a positive control (Compound 1, 10 μM) to be 0% FLT3-phosphorylation activity. The concentration of the test compound was varied on several levels, the FLT3-phosphorylation inhibitory activity was determined for each case, and the concentration of the test compound necessary for inhibiting 50% of FLT3-phosphorylation (IC50) was calculated.

| Structure (SMILES) | IC50 (MV4-11; Homo sapiens, MV4-11, 72 h) [µM] | IC50 (FLT3) [µM] | IC50 (MV4-11; hydrochloride) [µM] |
| --- | --- | --- | --- |
| COc1cc2nccc(Oc3ccc(NC(=O)NCCC(C)(C)C)cc3)c2cc1OC [Compound 1, 1-[4-(6,7-Dimethoxy-quinolin-4-yloxy)-phenyl]-3-(3,3-dimethyl-butyl)-urea hydrochloride] | < 0.001 | 0.002 |  |
| COc1cc2nccc(Oc3c(Cl)cc(NC(=O)NCCC(C)(C)C)cc3Cl)c2cc1OC [Compound 6, 1-[3,5-Dichloro-4-(6,7-dimethoxy-quinolin--4-yloxy)-phenyl]-3-(3,3-dimethyl-butyl)-urea] | 0.008 | 0.109 |  |
| COc1cc2c(Oc3ccc(NC(=O)NCCC(C)(C)C)c(F)c3)ccnc2cc1OCCN1CCCCC1 [Compound 43, 1-(3,3-Dimethyl-butyl)-3-{2-fluoro-4-[6-methoxy-7-(2-piperidin-1-yl-ethoxy)-quinolin-4-yloxy]-phenyl}-urea hydrochloride] | 0.012 | 0.216 |  |

Second part, the compound after the results:

| IC50 (MV4-11; Homo sapiens, MV4-11, 72 h) [µM] | IC50 (FLT3) [µM] | IC50 (MV4-11; hydrochloride) [µM] | Structure (SMILES) |
| --- | --- | --- | --- |
| 0.001 | < 0.001 |  | COc1cc2nccc(Oc3ccc(NC(=O)NCCC(C)(C)C)cc3Cl)c2cc1OC [Compound 8, 1-[3-Chloro-4-(6,7-dimethoxy-quinolin-4-yloxy)-phenyl]-3-(3,3-dimethyl-butyl)-urea] |
| < 0.001 | < 0.001 |  | COc1cc2nccc(Oc3ccc(NC(=O)NCCC(C)(C)C)cc3F)c2cc1OC [Compound 10, 1-[4-(6,7-Dimethoxy-quinolin-4-yloxy)-3-fluoro-phenyl]-3-(3,3-dimethyl-butyl)-urea hydrochloride] |
|  | 0.308 | 0.025 | COc1cc2c(Oc3ccc(NC(=O)NCCC(C)(C)C)c(F)c3)ccnc2cc1OCCN1CCOCC1 [Compound 41, 1-(3,3-Dimethyl-butyl)-3-{2-fluoro-4-[6-methoxy-7-(2-morpholin-4-yl-ethoxy)-quinolin-4-yloxy]-phenyl}-urea hydrochloride] |
| 0.002 | 0.2 |  | COc1cc2c(Oc3ccc(NC(=O)NCCC(C)(C)C)cc3F)ccnc2cc1OCCN1CCCCC1 [Compound 44, 1-(3,3-Dimethyl-butyl)-3-{3-fluoro-4-[6-methoxy-7-(2-piperidin-1-yl-ethoxy)-quinolin-4-yloxy]-phenyl}-urea] |
